According to ChEMBL document CHEMBL1158622, “Discovery of a series of indan carboxylic acid glycogen phosphorylase inhibitors” (Bioorg Med Chem Lett, 2010):
Where “and” joins values, the source holds several entries; their conditions need not be identical. Equal values may be shown once.

Tests used:
[1] = (§1) Oral bioavailability in rat at 5 mg/kg oral & 2 mg/kg iv dose; assay type: ADME, organism-based; conditions: in vivo
[2] = target: T1, Glycogen phosphorylase, liver form (Homo sapiens, UniProt P06737); assay: Inhibition of human recombinant liver glycogen phosphorylase by multienzyme-coupled reaction
T1 sequence (P06737 whole entry): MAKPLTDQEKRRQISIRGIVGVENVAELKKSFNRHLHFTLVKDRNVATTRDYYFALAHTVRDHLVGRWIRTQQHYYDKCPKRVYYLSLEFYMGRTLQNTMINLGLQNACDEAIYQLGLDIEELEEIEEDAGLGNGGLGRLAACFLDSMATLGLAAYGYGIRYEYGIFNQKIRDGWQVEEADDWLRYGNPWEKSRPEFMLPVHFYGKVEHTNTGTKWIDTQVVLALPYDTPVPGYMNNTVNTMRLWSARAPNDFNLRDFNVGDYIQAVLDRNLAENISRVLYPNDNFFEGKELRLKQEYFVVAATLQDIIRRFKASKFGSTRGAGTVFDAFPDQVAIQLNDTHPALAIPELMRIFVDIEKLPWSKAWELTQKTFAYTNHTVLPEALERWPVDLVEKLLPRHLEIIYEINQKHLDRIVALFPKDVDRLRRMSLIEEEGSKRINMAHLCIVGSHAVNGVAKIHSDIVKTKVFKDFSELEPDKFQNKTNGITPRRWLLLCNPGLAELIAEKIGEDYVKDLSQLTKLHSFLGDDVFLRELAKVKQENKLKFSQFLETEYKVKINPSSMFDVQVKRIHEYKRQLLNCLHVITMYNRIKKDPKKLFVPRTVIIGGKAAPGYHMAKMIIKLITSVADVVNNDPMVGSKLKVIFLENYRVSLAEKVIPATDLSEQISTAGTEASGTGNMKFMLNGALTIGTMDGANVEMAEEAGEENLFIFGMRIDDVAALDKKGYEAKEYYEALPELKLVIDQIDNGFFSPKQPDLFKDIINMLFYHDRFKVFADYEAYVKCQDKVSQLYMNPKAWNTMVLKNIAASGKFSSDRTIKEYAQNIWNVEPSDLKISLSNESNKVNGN

Rattus norvegicus [3] = species on record: Rattus norvegicus; assay: Free plasma concentration in rat; assay type: ADME, organism-based; conditions: in vivo
[4] = Half life in male Wistar rats at 4.3 - 4.9 umol/kg iv dose (11 - 12.2 umol/kg oral); assay type: ADME, organism-based; conditions: rat, in vivo
CYP3A4 = CYP3A4 (Homo sapiens, UniProt P08684); assay: Inhibition of […] at 10 uM; assay type: ADME
[5] = Clearance in Wistar rat at […], iv and 11 to 12.2 umol/kg, po; assay type: ADME, organism-based; conditions: in vivo
[6] = Oral bioavailability in male Wistar rats at 11 - 12.2 umol/kg oral & 4.3 - 4.9 umol/kg iv dose; assay type: ADME, organism-based; conditions: rat, in vivo
[7] = target: Voltage-gated inwardly rectifying potassium channel KCNH2 (Homo sapiens, UniProt Q12809)
CYP2C19 = CYP2C19 (Homo sapiens, UniProt P33261); assay: Inhibition of CYP2C19 at 10 uM; assay type: ADME
CYP1A2 = target: T2, CYP1A2 (Homo sapiens, UniProt P05177); assay: Inhibition of CYP1A2 at 10 uM; assay type: ADME
T2 sequence (P05177 whole entry): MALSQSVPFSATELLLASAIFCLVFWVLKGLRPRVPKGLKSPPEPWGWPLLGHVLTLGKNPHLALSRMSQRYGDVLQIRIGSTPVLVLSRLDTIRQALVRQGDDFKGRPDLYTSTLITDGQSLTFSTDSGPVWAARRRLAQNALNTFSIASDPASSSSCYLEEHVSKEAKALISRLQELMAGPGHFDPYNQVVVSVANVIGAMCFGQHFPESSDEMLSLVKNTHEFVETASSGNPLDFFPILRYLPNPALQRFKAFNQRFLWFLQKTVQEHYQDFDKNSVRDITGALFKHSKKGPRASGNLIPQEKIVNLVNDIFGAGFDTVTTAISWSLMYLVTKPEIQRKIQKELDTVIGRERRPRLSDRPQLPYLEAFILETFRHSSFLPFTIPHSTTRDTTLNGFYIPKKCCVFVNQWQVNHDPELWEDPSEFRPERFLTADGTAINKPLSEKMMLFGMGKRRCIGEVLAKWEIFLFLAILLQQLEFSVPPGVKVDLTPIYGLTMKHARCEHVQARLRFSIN

CYP2D6 = CYP2D6 (Homo sapiens, UniProt P10635); assay: Inhibition of CYP2D6 at 10 uM; assay type: ADME
CYP2C9 = CYP2C9 (Homo sapiens, UniProt P11712); assay: Inhibition of CYP2C9 at 10 uM; assay type: ADME
[8] = Volume of distribution in Wistar rat at […], iv and 11 to 12.2 umol/kg, po; assay type: ADME, organism-based; conditions: in vivo
Rattus norvegicus [9] = assay: as §1; assay type: ADME, organism-based; conditions: in vivo
Rattus norvegicus [10] = assay: Antihyperglycemic activity in Zucker fa/fa rat assessed as reduction in glucose level at 17 umol/kg dosed 45 mins prior to glucagon challenge measured after 90 mins; assay type: functional; parameters: scale not given: the % may be the effect or the level left

CYP3A4, sequence (P08684 whole entry): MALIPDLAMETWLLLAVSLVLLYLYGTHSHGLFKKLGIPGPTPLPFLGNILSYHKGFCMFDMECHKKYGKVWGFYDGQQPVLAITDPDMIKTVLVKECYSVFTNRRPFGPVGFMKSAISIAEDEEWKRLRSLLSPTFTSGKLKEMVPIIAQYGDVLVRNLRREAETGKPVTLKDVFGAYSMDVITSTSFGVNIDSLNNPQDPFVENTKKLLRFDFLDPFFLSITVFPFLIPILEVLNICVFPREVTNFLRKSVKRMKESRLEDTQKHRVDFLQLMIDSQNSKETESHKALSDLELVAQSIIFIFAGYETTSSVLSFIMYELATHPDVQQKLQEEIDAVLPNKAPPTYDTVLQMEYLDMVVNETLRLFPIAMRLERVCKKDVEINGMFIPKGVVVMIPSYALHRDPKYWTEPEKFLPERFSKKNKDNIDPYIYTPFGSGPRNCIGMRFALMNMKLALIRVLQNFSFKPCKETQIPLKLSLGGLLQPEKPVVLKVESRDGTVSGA
CYP2C9, sequence (P11712 whole entry): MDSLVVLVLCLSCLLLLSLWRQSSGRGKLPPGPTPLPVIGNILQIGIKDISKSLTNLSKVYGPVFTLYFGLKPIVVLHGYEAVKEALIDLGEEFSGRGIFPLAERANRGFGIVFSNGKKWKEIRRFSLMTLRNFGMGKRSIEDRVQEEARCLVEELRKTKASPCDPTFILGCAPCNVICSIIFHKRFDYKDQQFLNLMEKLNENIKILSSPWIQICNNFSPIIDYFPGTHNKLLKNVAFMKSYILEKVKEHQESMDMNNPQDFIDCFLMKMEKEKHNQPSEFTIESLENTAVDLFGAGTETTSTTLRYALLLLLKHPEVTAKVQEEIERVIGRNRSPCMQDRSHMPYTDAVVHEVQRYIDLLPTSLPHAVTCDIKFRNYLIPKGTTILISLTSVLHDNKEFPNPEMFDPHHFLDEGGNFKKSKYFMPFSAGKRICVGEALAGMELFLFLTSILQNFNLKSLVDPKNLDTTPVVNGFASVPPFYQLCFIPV
CYP2C19, sequence (P33261 whole entry): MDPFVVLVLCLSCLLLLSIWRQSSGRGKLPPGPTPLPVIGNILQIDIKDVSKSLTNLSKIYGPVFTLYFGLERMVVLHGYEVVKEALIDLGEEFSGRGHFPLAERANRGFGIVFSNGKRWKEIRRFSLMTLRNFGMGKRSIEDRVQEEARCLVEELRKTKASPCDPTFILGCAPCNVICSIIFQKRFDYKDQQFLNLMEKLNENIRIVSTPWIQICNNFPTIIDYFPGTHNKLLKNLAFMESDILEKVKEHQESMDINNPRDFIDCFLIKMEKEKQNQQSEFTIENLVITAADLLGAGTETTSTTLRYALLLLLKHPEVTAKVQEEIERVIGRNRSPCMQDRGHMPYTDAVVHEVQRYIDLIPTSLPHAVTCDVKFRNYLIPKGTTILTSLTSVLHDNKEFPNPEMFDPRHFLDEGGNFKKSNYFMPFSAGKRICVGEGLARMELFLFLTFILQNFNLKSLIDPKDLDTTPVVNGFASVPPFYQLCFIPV
CYP2D6, sequence (P10635 whole entry): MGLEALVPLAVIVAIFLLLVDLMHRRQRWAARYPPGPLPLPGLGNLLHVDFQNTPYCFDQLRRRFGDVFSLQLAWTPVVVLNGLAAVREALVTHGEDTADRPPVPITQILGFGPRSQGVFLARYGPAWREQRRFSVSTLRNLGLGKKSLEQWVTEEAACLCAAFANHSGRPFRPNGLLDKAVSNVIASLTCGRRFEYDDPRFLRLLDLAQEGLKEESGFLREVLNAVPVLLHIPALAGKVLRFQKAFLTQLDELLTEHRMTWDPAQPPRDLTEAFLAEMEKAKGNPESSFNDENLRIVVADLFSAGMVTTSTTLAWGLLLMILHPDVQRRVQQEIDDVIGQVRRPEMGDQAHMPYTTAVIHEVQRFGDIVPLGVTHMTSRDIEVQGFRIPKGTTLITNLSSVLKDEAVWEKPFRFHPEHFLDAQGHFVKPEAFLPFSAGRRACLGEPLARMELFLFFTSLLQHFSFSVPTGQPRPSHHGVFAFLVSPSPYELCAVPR
Voltage-gated inwardly rectifying potassium channel KCNH2, sequence (Q12809 whole entry): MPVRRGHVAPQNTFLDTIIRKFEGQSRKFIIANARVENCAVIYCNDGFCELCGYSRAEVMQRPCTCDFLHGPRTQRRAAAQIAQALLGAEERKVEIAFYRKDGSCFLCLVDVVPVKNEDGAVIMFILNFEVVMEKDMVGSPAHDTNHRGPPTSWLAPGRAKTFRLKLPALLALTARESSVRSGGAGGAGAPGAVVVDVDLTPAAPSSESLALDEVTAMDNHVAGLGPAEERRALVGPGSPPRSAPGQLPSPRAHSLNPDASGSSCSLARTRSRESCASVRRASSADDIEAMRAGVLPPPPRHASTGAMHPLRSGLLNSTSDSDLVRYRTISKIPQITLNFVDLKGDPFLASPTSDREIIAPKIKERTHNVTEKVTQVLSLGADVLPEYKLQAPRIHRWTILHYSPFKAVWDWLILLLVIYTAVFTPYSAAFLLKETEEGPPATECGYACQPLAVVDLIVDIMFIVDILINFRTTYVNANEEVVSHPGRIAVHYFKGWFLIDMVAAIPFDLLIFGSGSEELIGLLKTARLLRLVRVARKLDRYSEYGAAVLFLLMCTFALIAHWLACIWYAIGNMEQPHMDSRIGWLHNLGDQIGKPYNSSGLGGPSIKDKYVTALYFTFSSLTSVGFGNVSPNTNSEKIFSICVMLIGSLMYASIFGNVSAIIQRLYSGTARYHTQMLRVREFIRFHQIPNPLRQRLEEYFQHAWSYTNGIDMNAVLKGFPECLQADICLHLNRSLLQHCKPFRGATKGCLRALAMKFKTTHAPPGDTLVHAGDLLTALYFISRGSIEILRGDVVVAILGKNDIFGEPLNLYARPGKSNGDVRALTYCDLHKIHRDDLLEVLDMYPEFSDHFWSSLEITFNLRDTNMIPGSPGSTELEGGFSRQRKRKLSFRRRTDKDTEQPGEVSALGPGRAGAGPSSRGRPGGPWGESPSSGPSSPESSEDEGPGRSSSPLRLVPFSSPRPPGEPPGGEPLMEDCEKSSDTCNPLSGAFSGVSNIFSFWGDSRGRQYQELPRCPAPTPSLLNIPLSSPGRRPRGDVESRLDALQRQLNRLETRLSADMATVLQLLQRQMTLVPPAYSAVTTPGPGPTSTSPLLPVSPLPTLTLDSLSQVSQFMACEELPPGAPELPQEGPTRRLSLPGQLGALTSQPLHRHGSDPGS

Structure (SMILES) | bioavailability [1] | IC50 [2] | other results
O=C(O)CSC[C@@H]1c2ccccc2C[C@H]1NC(=O)c1cc2sc(Cl)c(Cl)c2[nH]1 | 23% | 40 nM | 
O=C(O)C[C@H]1c2ccccc2C[C@@H]1NC(=O)c1cc2cc(Cl)sc2[nH]1 |  | 1200 nM | 
O=C(O)CCC[C@@H]1c2ccccc2C[C@H]1NC(=O)c1cc2sc(Cl)c(Cl)c2[nH]1 | 118% | 54 nM | 
O=C(O)C[C@@H]1c2ccccc2C[C@H]1NC(=O)c1cc2cc(Cl)ccc2[nH]1 | 77% | 57 nM | 
O=C(O)C[C@@H]1c2ccccc2C[C@H]1NC(=O)c1cc2cc(F)ccc2[nH]1 | 88% |  | 
O=C(O)C[C@@H]1c2ccccc2C[C@H]1NC(=O)c1cc2cc(Cl)sc2[nH]1 | 41% | 40 nM | 
O=C(O)CC(=O)N[C@@H]1c2ccccc2C[C@H]1NC(=O)c1cc2sc(Cl)c(Cl)c2[nH]1 | 2% | 56 nM | 
O=C(O)C[C@@H]1c2ccccc2C[C@H]1NC(=O)c1cc2cc(Cl)ncc2[nH]1 | 11% | 260 nM | fraction unbound (Rattus norvegicus [3]): 0.01%
O=C(O)C[C@H]1c2ccccc2C[C@@H]1NC(=O)c1cc2sc(Cl)c(Cl)c2[nH]1 |  | 1500 nM | 
O=C(O)CCCS(=O)(=O)C[C@@H]1c2ccccc2C[C@H]1NC(=O)c1cc2sc(Cl)c(Cl)c2[nH]1 | 2% | 42 nM | fraction unbound (Rattus norvegicus [3]): 0.3%
O=C(O)C[C@@H]1c2ccccc2C[C@H]1NC(=O)c1cc2cc(Cl)cc(F)c2[nH]1 | 41% | 52 nM | 
COCC[C@H](C(=O)O)[C@@H]1c2ccccc2C[C@H]1NC(=O)c1cc2sc(Cl)c(Cl)c2[nH]1 [(S)-2-((1R,2R)-2-(2,3-DICHLORO-4H-THIENO[3,2-B]PYRROLE-5-CARBOXAMIDO)-2,3-DIHYDRO-1H-INDEN-1-YL)-4-METHOXYBUTANOIC ACID (DIASTEREOMERIC MIX)] |  |  | half-life [4]: 7 h; F (Rattus norvegicus [9]): 150% and 65%; inhibition at 10 µM (CYP3A4): < 50%; clearance [5]: 0.4 mL/min/kg; bioavailability [6]: 118%; inhibition at 10 µM (CYP2C19): < 50%; inhibition at 10 µM (CYP1A2): < 50%; inhibition at 10 µM (CYP2D6): < 50%; inhibition at 10 µM (CYP2C9): < 50%; Vd [8]: 0.2 L/kg; Activity (Rattus norvegicus [10]): 50%

More lines, in order of falling IC50 [2], values ahead:

bioavailability [1] | IC50 [2] | Structure (SMILES) | other results
65% | 76 nM | O=C(O)C[C@@H]1c2ccccc2C[C@H]1NC(=O)c1cc2cc(Cl)c(F)cc2[nH]1 | 
55% | 59 nM | O=C(O)CCO[C@@H]1c2ccccc2C[C@H]1NC(=O)c1cc2sc(Cl)c(Cl)c2[nH]1 | 
80% | 56 nM | O=C(O)CC[C@@H]1c2ccccc2C[C@H]1NC(=O)c1cc2sc(Cl)c(Cl)c2[nH]1 | 
5% | 30 nM | O=C(O)CO[C@@H]1c2ccccc2C[C@H]1NC(=O)c1cc2sc(Cl)c(Cl)c2[nH]1 | 
65% | 18 nM | O=C(O)C[C@@H]1c2ccccc2C[C@H]1NC(=O)c1cc2sc(Cl)c(Cl)c2[nH]1 | half-life [4]: 8 h; inhibition at 10 µM (CYP3A4): < 50%; clearance [5]: 0.23 mL/min/kg; bioavailability [6]: 65%; IC50 [7]: > 30000 nM; inhibition at 10 µM (CYP2C19): < 50%; inhibition at 10 µM (CYP1A2): < 50%; inhibition at 10 µM (CYP2D6): < 50%; inhibition at 10 µM (CYP2C9): < 50%; Vd [8]: 0.2 L/kg
